Experimental data as given in PMC4365270 (Cancer Chemotherapy and Pharmacology, 2015).
Entries after “also recorded” stand apart in the source; their conditions may differ. Like-named read-outs stand apart in the source and are kept apart here.

Columns and labels:
[1] = dogs; cited from earlier work
[2] = tested on: multiple mouse cancer models; conditions: cited from earlier work
[3] = tested on: xenograft tumors; conditions: cited from earlier work
[4] = tested on: advanced solid tumors and lymphomas; assay: Antitumor activity (RECIST 1.1 / lymphoma criteria); format: in vivo, human
Experimental: Tumor evaluations were scheduled before therapy and after every other cycle of therapy. Changes were determined by physical examination, tumor markers, or standard imaging techniques. […] Read-outs were complete response (CR), partial response (PR), stable disease (SD), and disease progression (DP).

[5] = parameters: method as in PMID 23813446; conditions: dogs; cited from earlier work
[6] = Plasma pharmacokinetics of DEBIO1143 in patients (LC-MS/MS); format: in vivo, human; conditions: for AUC(0-t) / Cmax / Tmax / AUC(0-inf) / half-life: human, plasma
Experimental: Pharmacokinetic samples were taken from all patients on day 1 (predose, 0.5, 1, 2, 3, 4, 6, 8, 12, 18 h postdose) and on day 5 (predose, 0.5, 1, 2, 3, 4, 6, 8 h postdose) of the first cycle. In addition, for exploratory PD analysis of IAP inhibition and activation of apoptosis, optional skin and tumor biopsies were taken from consenting patients on days 1 (predose) and 5 and blood samples on day 1 (predose, 1, 3, 6, 8, 12 h postdose), day 2 (predose), and day 5 (3 h postdose).
C max and t max were determined by direct assessment of the observed concentration versus time curves. The area under the curve until the last quantifiable concentration (AUC0−t) was estimated by a linear up/log down method if ≥3 values were available and extrapolated to infinity (AUCinf), if the extrapolated part was <30 %. The terminal elimination half-life (T 1/2) was calculated as the ratio of loge^2 to the apparent terminal phase rate constant (λ z), determined through unweighted linear regression analysis on ≥3 log-transformed concentrations on the linear portion of the terminal slope, excluding the peak concentration. In general, points maximizing R ^2 up to at least 0.9 were included for linear regression.
For the detection of cIAP-1 in paraffin-embedded human tissue, a validated immunohistochemical (IHC) assay was used. […] Plasma biomarkers were measured through commercial ELISAs. All laboratory analyses were performed by MPI Research, Inc. (PK) and Mosaic Laboratory, LLC (PD).

[7] = parameters: method as in PMID 23813446; conditions: mice; cited from earlier work
[8] = parameters: method as in PMID 23813446; conditions: non-human primates; cited from earlier work
[9] = parameters: method as in PMID 23813446; conditions: rats; cited from earlier work
[10] = oral, 80 mg, day 1, n=3, mean (SD)
[11] = oral, 80 mg, day 5, n=3, mean (SD)
[12] = oral, 120 mg, day 1, n=3, mean (SD)
[13] = oral, 120 mg, day 5, n=3, mean (SD)
[14] = oral, 180 mg, day 1, n=7, mean (SD)
[15] = oral, 180 mg, day 5, n=7, mean (SD)
[16] = oral, 260 mg, day 1, n=3, mean (SD)
[17] = oral, 260 mg, day 5, n=3, mean (SD)
[18] = oral, 400 mg, day 1, n=3, mean (SD)
[19] = oral, 400 mg, day 5, n=3, mean (SD)
[20] = oral, 600 mg, day 1, n=3, mean (SD)
[21] = oral, 600 mg, day 5, n=3, mean (SD)
[22] = oral, 900 mg, day 1, n=6, mean (SD)
[23] = oral, 900 mg, day 5, n=6, mean (SD)

CN[C@@H](C)C(=O)N[C@H]1CN(C(=O)CC(C)C)CC[C@H]2CC[C@@H](C(=O)NC(c3ccccc3)c3ccccc3)N2C1=O [DEBIO1143]
No observable adverse event level (NOAEL) [1]: 1 mg/kg
Effect on irradiation or chemotherapeutic agents [2]: enhance the antitumoral effects
Apoptosis [3]: apoptosis in xenograft tumors
Complete or partial response ([4]; 31 patients): No patient had a complete or partial response
Duration of stable disease, range ([4]; five patients): 85 to 197 days
Median duration of stable disease ([4]; five patients): 93 days
Reduction in target lesion dimensions ([4]; one patient with metastatic melanoma, 400 mg/day): 11%
Oral bioavailability [5]: good
Dose proportionality of C max and AUC ([6]; doses 80 to 900 mg): increased proportionally; also recorded: proportional to doses ≥80 mg
Drug levels versus levels active in animal models ([6]; doses of ≥80 mg): exceeded levels that have demonstrated activity in animal models
AUC(0-t) ([6]; oral, 5 mg, day 1, n=1): 19.6 ng·h/mL
Cmax ([6]; oral, 5 mg, day 1, n=1): 6.69 ng/mL
Tmax ([6]; oral, 5 mg, day 1, n=1, read-out: T max): 3 h
AUC(0-t) ([6]; oral, 5 mg, day 5, n=1): 43.4 ng·h/mL
Cmax ([6]; oral, 5 mg, day 5, n=1): 18.5 ng/mL
Tmax ([6]; oral, 5 mg, day 5, n=1, read-out: T max): 1.6 h
AUC(0-inf) ([6]; oral, 10 mg, day 1, n=1): 152 ng·h/mL
AUC(0-t) ([6]; oral, 10 mg, day 1, n=1): 129 ng·h/mL
Cmax ([6]; oral, 10 mg, day 1, n=1): 37.4 ng/mL
half-life ([6]; oral, 10 mg, day 1, n=1, read-out: T 1/2 (converted)): 2.46 h
Tmax ([6]; oral, 10 mg, day 1, n=1, read-out: T max): 1 h
AUC(0-inf) ([6]; oral, 10 mg, day 5, n=1): 117 ng·h/mL
AUC(0-t) ([6]; oral, 10 mg, day 5, n=1): 103 ng·h/mL
Cmax ([6]; oral, 10 mg, day 5, n=1): 26.9 ng/mL
half-life ([6]; oral, 10 mg, day 5, n=1, read-out: T 1/2 (converted)): 2.53 h
Tmax ([6]; oral, 10 mg, day 5, n=1, read-out: T max): 3.5 h
AUC(0-inf) ([6]; oral, 20 mg, day 1, n=1): 643 ng·h/mL
AUC(0-t) ([6]; oral, 20 mg, day 1, n=1): 615 ng·h/mL
Cmax ([6]; oral, 20 mg, day 1, n=1): 126 ng/mL
half-life ([6]; oral, 20 mg, day 1, n=1, read-out: T 1/2 (converted)): 5.44 h
Tmax ([6]; oral, 20 mg, day 1, n=1, read-out: T max): 1 h
AUC(0-inf) ([6]; oral, 20 mg, day 5, n=1): 451 ng·h/mL
AUC(0-t) ([6]; oral, 20 mg, day 5, n=1): 375 ng·h/mL
Cmax ([6]; oral, 20 mg, day 5, n=1): 134 ng/mL
half-life ([6]; oral, 20 mg, day 5, n=1, read-out: T 1/2 (converted)): 3.37 h
Tmax ([6]; oral, 20 mg, day 5, n=1, read-out: T max): 0.5 h
AUC(0-inf) ([6]; oral, 40 mg, day 1, n=1): 2300 ng·h/mL
AUC(0-t) ([6]; oral, 40 mg, day 1, n=1): 2140 ng·h/mL
Cmax ([6]; oral, 40 mg, day 1, n=1): 627 ng/mL
half-life ([6]; oral, 40 mg, day 1, n=1, read-out: T 1/2 (converted)): 6.38 h
Tmax ([6]; oral, 40 mg, day 1, n=1, read-out: T max): 1 h
AUC(0-t) ([6]; oral, 40 mg, day 5, n=1): 1090 ng·h/mL
Cmax ([6]; oral, 40 mg, day 5, n=1): 184 ng/mL
Tmax ([6]; oral, 40 mg, day 5, n=1, read-out: T max): 6.1 h
AUC(0-inf) [6, 10]: 6660 ng·h/mL
AUC(0-t) [6, 10]: 6390 ng·h/mL
Cmax [6, 10]: 1330 ng/mL
half-life ([6]; oral, 80 mg, day 1, n=3, mean (SD), read-out: T 1/2 (converted)): 5.22 h
Tmax ([6]; oral, 80 mg, day 1, n=3, median (min–max), read-out: T max): 2 h
AUC(0-inf) [6, 11]: 5920 ng·h/mL
AUC(0-t) [6, 11]: 5020 ng·h/mL
Cmax [6, 11]: 1670 ng/mL
half-life ([6]; oral, 80 mg, day 5, n=3, mean (SD), read-out: T 1/2 (converted)): 2.69 h
Tmax ([6]; oral, 80 mg, day 5, n=3, median (min–max), read-out: T max): 2 h
AUC(0-inf) [6, 12]: 7460 ng·h/mL
AUC(0-t) [6, 12]: 6890 ng·h/mL
Cmax [6, 12]: 1650 ng/mL
half-life ([6]; oral, 120 mg, day 1, n=3, mean (SD), read-out: T 1/2 (converted)): 6.39 h
Tmax ([6]; oral, 120 mg, day 1, n=3, median (min–max), read-out: T max): 1 h
AUC(0-inf) [6, 13]: 6770 ng·h/mL
AUC(0-t) [6, 13]: 5430 ng·h/mL
Cmax [6, 13]: 1190 ng/mL
half-life ([6]; oral, 120 mg, day 5, n=3, mean (SD), read-out: T 1/2 (converted)): 2.61 h
Tmax ([6]; oral, 120 mg, day 5, n=3, median (min–max), read-out: T max): 2 h
AUC(0-inf) [6, 14]: 11400 ng·h/mL
AUC(0-t) [6, 14]: 10600 ng·h/mL
Cmax [6, 14]: 2130 ng/mL
half-life ([6]; oral, 180 mg, day 1, n=7, mean (SD), read-out: T 1/2 (converted)): 6.06 h
Tmax ([6]; oral, 180 mg, day 1, n=7, median (min–max), read-out: T max): 2 h
AUC(0-inf) [6, 15]: 9980 ng·h/mL
AUC(0-t) [6, 15]: 7210 ng·h/mL
Cmax [6, 15]: 2160 ng/mL
half-life ([6]; oral, 180 mg, day 5, n=7, mean (SD), read-out: T 1/2 (converted)): 4.14 h
Tmax ([6]; oral, 180 mg, day 5, n=7, median (min–max), read-out: T max): 2 h
AUC(0-inf) [6, 16]: 17900 ng·h/mL
AUC(0-t) [6, 16]: 16300 ng·h/mL
Cmax [6, 16]: 2890 ng/mL
half-life ([6]; oral, 260 mg, day 1, n=3, mean (SD), read-out: T 1/2 (converted)): 6.59 h
Tmax ([6]; oral, 260 mg, day 1, n=3, median (min–max), read-out: T max): 3 h
AUC(0-inf) [6, 17]: 11700 ng·h/mL
AUC(0-t) [6, 17]: 10600 ng·h/mL
Cmax [6, 17]: 2760 ng/mL
half-life ([6]; oral, 260 mg, day 5, n=3, mean (SD), read-out: T 1/2 (converted)): 3.29 h
Tmax ([6]; oral, 260 mg, day 5, n=3, median (min–max), read-out: T max): 2 h
AUC(0-inf) [6, 18]: 27000 ng·h/mL
AUC(0-t) [6, 18]: 25000 ng·h/mL
Cmax [6, 18]: 5280 ng/mL
half-life ([6]; oral, 400 mg, day 1, n=3, mean (SD), read-out: T 1/2 (converted)): 6.27 h
Tmax ([6]; oral, 400 mg, day 1, n=3, median (min–max), read-out: T max): 1 h
AUC(0-inf) [6, 19]: 26500 ng·h/mL
AUC(0-t) [6, 19]: 20100 ng·h/mL
Cmax [6, 19]: 5540 ng/mL
half-life ([6]; oral, 400 mg, day 5, n=3, mean (SD), read-out: T 1/2 (converted)): 3.7 h
Tmax ([6]; oral, 400 mg, day 5, n=3, median (min–max), read-out: T max): 0.5 h
AUC(0-inf) [6, 20]: 28700 ng·h/mL
AUC(0-t) [6, 20]: 27000 ng·h/mL
Cmax [6, 20]: 5780 ng/mL
half-life ([6]; oral, 600 mg, day 1, n=3, mean (SD), read-out: T 1/2 (converted)): 5.75 h
Tmax ([6]; oral, 600 mg, day 1, n=3, median (min–max), read-out: T max): 1.1 h
AUC(0-inf) [6, 21]: 25000 ng·h/mL
AUC(0-t) [6, 21]: 20200 ng·h/mL
Cmax [6, 21]: 7110 ng/mL
half-life ([6]; oral, 600 mg, day 5, n=3, mean (SD), read-out: T 1/2 (converted)): 3.54 h
Tmax ([6]; oral, 600 mg, day 5, n=3, median (min–max), read-out: T max): 1 h
AUC(0-inf) [6, 22]: 61500 ng·h/mL
AUC(0-t) [6, 22]: 56100 ng·h/mL
Cmax [6, 22]: 10100 ng/mL
half-life ([6]; oral, 900 mg, day 1, n=6, mean (SD), read-out: T 1/2 (converted)): 7.11 h
Tmax ([6]; oral, 900 mg, day 1, n=6, median (min–max), read-out: T max): 1.5 h
AUC(0-inf) [6, 23]: 47000 ng·h/mL
AUC(0-t) [6, 23]: 36900 ng·h/mL
Cmax [6, 23]: 10300 ng/mL
half-life ([6]; oral, 900 mg, day 5, n=6, mean (SD), read-out: T 1/2 (converted)): 3.15 h
Tmax ([6]; oral, 900 mg, day 5, n=6, median (min–max), read-out: T max): 1.5 h
half-life ([6]; oral, all doses, read-out: Average T 1/2 (converted)): ~6 h
Tmax ([6]; oral, all doses, read-out: Average t max): ~1 h
half-life ([6]; oral, day 1, regardless of the dose, read-out: Mean T 1/2, range across doses): 5.2 to 7.1 h
Tmax ([6]; po, after oral intake, read-out: Time to peak plasma concentrations): 1 to 3 h
Oral bioavailability [7]: good
Oral bioavailability [8]: good
Oral bioavailability [9]: good
